# Results taken from patent publication US9346812B2, “Substituted pyrrolopyrimidine compounds, compositions thereof, and methods of treatment therewith” (Signal Pharmaceutical LLC, priority 2013, dated 2016).
# Test system: CAL51 cell proliferation
# Experiment: Cell Titer Glo Proliferation Assay (CAL51)
# Type: cell-based, human
# Conditions: Homo sapiens, CAL-51; CAL51 cell proliferation, 72 h, Cell Titer Glo luminescence; read-out: Act. Level
# Procedure, shortened: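 CAL51 triple-negative breast cancer cells in DMEM or RPMI with 10% FBS were treated after overnight culture with serially diluted compound at 0.2% final DMSO. After 72 h, viability was read as CellTiter-Glo luminescence.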
row,SMILES,IC50 [nM]
1,"COc1cc(C(=O)NCC2COCCO2)ccc1Nc1nc(OC2CCCC2)c2c(-c3ccc4nc(C)oc4c3)c[nH]c2n1 (stereo not shown) [Example 281, N-((1,4-dioxan-2-yl)methyl)-4-(4-(cyclopentyloxy)-5-(2-methylbenzo[d]oxazol-6-yl)-7H-pyrrolo[2,3-d]pyrimidin-2-ylamino)-3-methoxybenzamide]",100 to 400
2,"COc1cc(C(=O)NCC2COC2)ccc1Nc1nc(OC2CCCC2)c2c(-c3ccc4nc(C)oc4c3)c[nH]c2n1 [Example 282, 4-(4-(cyclopentyloxy)-5-(2-methylbenzo[d]oxazol-6-yl)-7H-pyrrolo[2,3-d]pyrimidin-2-ylamino)-3-methoxy-N-(oxetan-3-ylmethyl)benzamide]",100 to 400
3,COc1cc(C(=O)N(C)CCCO)ccc1Nc1nc(OC2CCCC2)c2c(-c3ccc4nc(C)oc4c3)c[nH]c2n1 [Example 283],< 100
4,"COCCN(C)C(=O)c1ccc(Nc2nc(OC3CCCC3)c3c(-c4ccc5nc(C)oc5c4)c[nH]c3n2)c(OC)c1 [Example 284, 4-(4-(cyclopentyloxy)-5-(2-methylbenzo[d]oxazol-6-yl)-7H-pyrrolo[2,3-d]pyrimidin-2-ylamino)-3-methoxy-N-(2-methoxyethyl)-N-methylbenzamide]",< 100
5,"COc1cc(C(=O)NCC(C)(C)O)ccc1Nc1nc(OC2CCCC2)c2c(-c3ccc4nc(C)oc4c3)c[nH]c2n1 [Example 285, 4-(4-(cyclopentyloxy)-5-(2-methylbenzo[d]oxazol-6-yl)-7H-pyrrolo[2,3-d]pyrimidin-2-ylamino)-N-(2-hydroxy-2-methylpropyl)-3-methoxybenzamide]",100 to 400
6,"CC[C@H](C)Oc1nc(Nc2ccc(C(=O)NCCO)cc2OC)nc2[nH]cc(-c3cnn(C)c3)c12 [Example 286, (S)-4-(4-sec-butoxy-5-(1-methyl-1H-pyrazol-4-yl)-7H-pyrrolo [2,3-d]pyrimidin-2-ylamino)-N-(2-hydroxyethyl)-3-methoxybenzamide]",100 to 400
7,"COc1cc(C(=N)N)ccc1Nc1nc(OC2CCCC2)c2c(-c3ccc4nc(C)oc4c3)c[nH]c2n1 [Example 287, 4-(4-(cyclopentyloxy)-5-(2-methylbenzo[d]oxazol-6-yl)-7H-pyrrolo[2,3-d]pyrimidin-2-ylamino)-3-methoxybenzimidamide]",1000 to 10000
8,"CNC(=O)c1ccc(Nc2nc(OC3CCOCC3)c3c(-c4ccnc(C(=O)NC)c4)c[nH]c3n2)c(OC)c1 [Example 288, 4-(2-(2-methoxy-4-(methylcarbamoyl)phenylamino)-4-(tetrahydro-2H-pyran-4-yloxy)-7H-pyrrolo[2,3-d]pyrimidin-5-yl)-N-methylpicolinamide]",100 to 400
9,"COc1cc(C(=O)N2CCC(F)(F)CC2)ccc1Nc1nc(OC2CCCC2)c2c(-c3ccc4nc(C)oc4c3)c[nH]c2n1 [Example 289, (4-(4-(cyclopentyloxy)-5-(2-methylbenzo[d]oxazol-6-yl)-7H-pyrrolo[2,3-d]pyrimidin-2-ylamino)-3-methoxyphenyl)(4,4-difluoropiperidin-1-yl)methanone]",100 to 400
10,"CNC(=O)c1ccc(Nc2nc(OC3CCCC3)c3c(-c4ccc(NC(C)=O)c(O)c4)c[nH]c3n2)c(OC)c1 [Example 290, 4-(5-(4-acetamido-3-hydroxy-phenyl)-4-(cyclopentyloxy)-7H-pyrrolo[2,3-d]pyrimidin-2-ylamino)-3-methoxy-N-methylbenzamide]",100 to 400
11,"COc1cc(C(=O)N2C[C@@H](O)[C@H](OC)C2)ccc1Nc1nc(OC2CCCC2)c2c(-c3ccc4nc(C)oc4c3)c[nH]c2n1 [Example 291, (4-(4-(cyclopentyloxy)-5-(2-methylbenzo[d]oxazol-6-yl)-7H-pyrrolo[2,3-d]pyrimidin-2-ylamino)-3-methoxyphenyl) ((3R,4R)-3-hydroxy-4-methoxypyrrolidin-1-yl) methanone]",< 100
12,"COc1cc(C(=O)NN2CCCCC2)ccc1Nc1nc(OC2CCCC2)c2c(-c3ccc4nc(C)oc4c3)c[nH]c2n1 [Example 292, 4-(4-(cyclopentyloxy)-5-(2-methylbenzo[d]oxazol-6-yl)-7H-pyrrolo[2,3-d]pyrimidin-2-ylamino)-3-methoxy-N-(piperidin-1-yl)benzamide]",100 to 400
13,"CCOc1nc2ccc(-c3c[nH]c4nc(Nc5ccc(C(=O)NC)cc5OC)nc(OC5CCCC5)c34)cc2o1 [Example 293, 4-(4-(cyclopentyloxy)-5-(2-ethoxybenzo[d]oxazol-6-yl)-7H-pyrrolo[2,3-d]pyrimidin-2-ylamino)-3-methoxy-N-methylbenzamide]",100 to 400
14,"CNC(=O)c1ccc(Nc2nc(OC3CCCC3)c3c(-c4ccc(N)c(O)c4)c[nH]c3n2)c(OC)c1 [Example 294, 4-(5-(4-amino-3-hydroxyphenyl)-4-(cyclopentyloxy)-7H-pyrrolo [2,3-d]pyrimidin-2-ylamino)-3-methoxy-N-methylbenzamide]",100 to 400
15,"Cc1nc2ccc(-c3c[nH]c4nc(Nc5ccnn5C)nc(OC5CCCC5)c34)cc2o1 [Example 295, 4-(cyclopentyloxy)-N-(1-methyl-1H-pyrazol-5-yl)-5-(2-methylbenzo[d]oxazol-6-yl)-7H-pyrrolo[2,3-d]pyrimidin-2-amine]",100 to 400
16,"Cc1nc2ccc(-c3c[nH]c4nc(Nc5cnn(C)c5C)nc(OC5CCCC5)c34)cc2o1 [Example 296, 4-(cyclopentyloxy)-N-(1,5-dimethyl-1H-pyrazol-4-yl)-5-(2-methylbenzo[d]oxazol-6-yl)-7H-pyrrolo[2,3-d]pyrimidin-2-amine]",< 100
17,"Cc1nc2ccc(-c3c[nH]c4nc(Nc5nn(C)cc5C)nc(OC5CCCC5)c34)cc2o1 [Example 297, 4-(cyclopentyloxy)-N-(1,4-dimethyl-1H-pyrazol-3-yl)-5-(2-methylbenzo[d]oxazol-6-yl)-7H-pyrrolo[2,3-d]pyrimidin-2-amine]",1000 to 10000
18,"CNC(=O)c1cc(C)c(Nc2nc(OC3CCCC3)c3c(-c4ccc5nc(C)oc5c4)c[nH]c3n2)c(OC)c1 [Example 298, 4-(4-(cyclopentyloxy)-5-(2-methylbenzo[d]oxazol-6-yl)-7H-pyrrolo[2,3-d]pyrimidin-2-ylamino)-3-methoxy-N,5-dimethylbenzamide]",1000 to 10000
19,"CNC(=O)c1ccc(Nc2nc(OC3CCCC3)c3c(-c4ccc5[nH]c(=O)oc5c4)c[nH]c3n2)c(OC)c1 [Example 299, 4-(4-(cyclopentyloxy)-5-(2-oxo-2,3-dihydrobenzo[d]oxazol-6-yl)-7H-pyrrolo[2,3-d]pyrimidin-2-ylamino)-3-methoxy-N-methylbenzamide]",100 to 400
20,"COc1cc(C(=O)NC2(C)COC2)ccc1Nc1nc(OC2CCCC2)c2c(-c3ccc4nc(C)oc4c3)c[nH]c2n1 [Example 301, 4-(4-(cyclopentyloxy)-5-(2-methylbenzo[d]oxazol-6-yl)-7H-pyrrolo[2,3-d]pyrimidin-2-ylamino)-3-methoxy-N-(3-methyloxetan-3-yl)benzamide]",100 to 400
21,"COc1cc(C(=O)NC2COC2)ccc1Nc1nc(OC2CCC2)c2c(-c3cnn(C)c3)c[nH]c2n1 [Example 302, 4-(4-cyclobutoxy-5-(1-methyl-1H-pyrazol-4-yl)-7H-pyrrolo[2,3-d]pyrimidin-2-ylamino)-3-methoxy-N-(oxetan-3-yl) benzamide]",100 to 400
22,"COc1cc(C(=O)NC2COC2)ccc1Nc1nc(OC2CCCC2)c2c(-c3cnn(C)c3)c[nH]c2n1 [Example 303, 4-(4-(cyclopentyloxy)-5-(1-methyl-1H-pyrazol-4-yl)-7H-pyrrolo[2,3-d]pyrimidin-2-ylamino)-3-methoxy-N-(oxetan-3-yl)benzamide]",< 100
